{
  "source": "patent US20070265281A1",
  "about": "“Organic Compounds and Their Uses” (priority 2006, published 2007)",
  "origin": "cited, not measured here",
  "system": "HCV",
  "conditions": "ribavirin alone",
  "data": [
    {"smiles": "NC(=O)c1ncn([C@@H]2O[C@H](CO)[C@@H](O)[C@H]2O)n1", "note": "[Ribavirin, 1-β-D-ribofuranosyl-1-1,2,4-triazole-3-caroxamide]", "values": [
      {"measurement": "serum levels of HCV-RNA", "setting": "patients", "result": "does not lower"},
      {"measurement": "patients in whom serum amino transferase levels are reduced to normal", "result": 40, "unit": "%"}
    ]}
  ]
}
